# Measurements as given in patent publication US9067989B2, “Eotaxin-2 (CCL24) inhibitors in inflammatory, autoimmune, and cardiovascular disorders” (THE MEDICAL RESEARCH, INFRASTRUCTURE, AND HEALTH SERVICES …, priority 2009, dated 2015).
# Tested on: adjuvant induced arthritis
# Assay: Adjuvant induced arthritis in Lewis rats
# Assay type: in vivo, rat
# Settings: D8 100 μg 3x/week, methotrexate 0.25 mg/kg once weekly, from day 3, compared to PBS
# Description: Adjuvant arthritis was induced in Lewis rats (six-week-old male Lewis rats obtained from Harlan, Israel) by injection of […]. […] was prepared by suspending heat-killed Mycobacterium Tuberculosis (Difco, Detroit, Mich.) in mineral oil at 10 mg/ml. Rats were injected intradermally with 100 μl adjuvant at the base of the tail. Arthritis developed by day 10 post injection.
# Rats (8 per group) were treated by intraperitoneal (IP) injection with 3 monoclonal antibodies against eotaxin-2, (G7, G8, D8) 3×/week. Controls were treated with total mouse (non specific) IgG or PBS. Injections were started on the third day after adjuvant administration and were performed three times a week until the rats were sacrificed. […]
# Arthritis severity was evaluated by measuring body weight, paw swelling, arthritic score and whole animal mobility. […]
# Body weight in grams was measured every other day as an indicator of systemic inflammation.
# Evaluation of Paw swelling. Ankle and wrist diameter in mm (to one place after the decimal point) were recorded three times a week using a caliper. […]
# Finger and toe swelling was recorded according to their partial contribution: Ankles (feet): each toe scored 0.2; Wrist: each finger scored 0.25 Sum of all joints was calculated.
# Whole animal Mobility was scored between 0-4, according to the following definitions: […]
smiles,measurement,setting,value
CN(Cc1cnc2nc(N)nc(N)c2n1)c1ccc(C(=O)N[C@@H](CCC(=O)O)C(=O)O)cc1 [methotrexate],"protection against development of arthritis (arthritic score), prevention mode",,"significant, comparable protection"
same,"protection against development of arthritis (arthritic score), prevention mode",listed as MTX,statistically significant effect (p<0.05)
